From PubChem BioAssay AID1259407 (Chemical Carcinogenesis Research Information System (CCRIS), 2018) come the findings set out here.

Activity calls are given as the source filed them. No rule for the calls is given here.

In the data set the test system is CCRIS mutagenicity, Ames/micronucleus/aberration tests. As to the kind of experiment: CCRIS mutagenicity studies.
The mark [1] stands for this setting: Test System: AMES SALMONELLA TYPHIMURIUM, Strain/Indicator: TA98, Metabolic Activation: NONE, Method: PREINCUBATION
[2] abbreviates: Test System: AMES SALMONELLA TYPHIMURIUM, Strain/Indicator: TA100, Metabolic Activation: NONE, Method: PREINCUBATION
[3] abbreviates: Test System: AMES SALMONELLA TYPHIMURIUM, Strain/Indicator: TA1535, Metabolic Activation: NONE, Method: PREINCUBATION

Turning to `CCCO`, the mutagenic call by setting is: (Test System: AMES SALMONELLA TYPHIMURIUM, Strain/Indicator: TA98, Metabolic Activation: HAMSTER, LIVER, S-9, AROCLOR 1254, Method: STANDARD PLATE) “inactive; negative”; (Test System: AMES SALMONELLA TYPHIMURIUM, Strain/Indicator: TA98, Metabolic Activation: NONE, Method: STANDARD PLATE) “inactive; negative”; (Test System: AMES SALMONELLA TYPHIMURIUM, Strain/Indicator: TA98, Metabolic Activation: RAT, LIVER, S-9, AROCLOR 1254, Method: STANDARD PLATE) “inactive; negative”; (Test System: AMES SALMONELLA TYPHIMURIUM, Strain/Indicator: TA100, Metabolic Activation: HAMSTER, LIVER, S-9, AROCLOR 1254, Method: STANDARD PLATE) “inactive; negative”; (Test System: AMES SALMONELLA TYPHIMURIUM, Strain/Indicator: TA100, Metabolic Activation: NONE, Method: STANDARD PLATE) “inactive; negative”; (Test System: AMES SALMONELLA TYPHIMURIUM, Strain/Indicator: TA100, Metabolic Activation: RAT, LIVER, S-9, AROCLOR 1254, Method: STANDARD PLATE) “inactive; negative”. For the same compound, the mutagenic call by setting is: (Test System: AMES SALMONELLA TYPHIMURIUM, Strain/Indicator: TA1535, Metabolic Activation: HAMSTER, LIVER, S-9, AROCLOR 1254, Method: STANDARD PLATE) “inactive; negative”; (Test System: AMES SALMONELLA TYPHIMURIUM, Strain/Indicator: TA1535, Metabolic Activation: NONE, Method: STANDARD PLATE) “inactive; negative”; (Test System: AMES SALMONELLA TYPHIMURIUM, Strain/Indicator: TA1535, Metabolic Activation: RAT, LIVER, S-9, AROCLOR 1254, Method: STANDARD PLATE) “inactive; negative”; (Test System: AMES SALMONELLA TYPHIMURIUM, Strain/Indicator: TA1537, Metabolic Activation: HAMSTER, LIVER, S-9, AROCLOR 1254, Method: STANDARD PLATE) “inactive; negative”; (Test System: AMES SALMONELLA TYPHIMURIUM, Strain/Indicator: TA1537, Metabolic Activation: NONE, Method: STANDARD PLATE) “inactive; negative”; (Test System: AMES SALMONELLA TYPHIMURIUM, Strain/Indicator: TA1537, Metabolic Activation: RAT, LIVER, S-9, AROCLOR 1254, Method: STANDARD PLATE) “inactive; negative”. Also, the mutagenic call is, setting by setting: (Test System: AMES SALMONELLA TYPHIMURIUM, Strain/Indicator: TA1538, Metabolic Activation: HAMSTER, LIVER, S-9, AROCLOR 1254, Method: STANDARD PLATE) “inactive; negative”; (Test System: AMES SALMONELLA TYPHIMURIUM, Strain/Indicator: TA1538, Metabolic Activation: NONE, Method: STANDARD PLATE) “inactive; negative”; (Test System: AMES SALMONELLA TYPHIMURIUM, Strain/Indicator: TA1538, Metabolic Activation: RAT, LIVER, S-9, AROCLOR 1254, Method: STANDARD PLATE) “inactive; negative”; (Test System: MOUSE LYMPHOMA, Strain/Indicator: L5178Y (TK+/TK-), Metabolic Activation: NONE, Method: SUSPENSION/PLATE) “inactive; negative”; (Test System: MOUSE LYMPHOMA, Strain/Indicator: L5178Y (TK+/TK-), Metabolic Activation: RAT, LIVER, S-9, AROCLOR 1254, Method: SUSPENSION/PLATE) “inactive; negative”.

Turning to `CC(C)(N=O)[N+](=O)[O-]`, the mutagenic call by setting is: under setting [1], “active; positive”; (Test System: AMES SALMONELLA TYPHIMURIUM, Strain/Indicator: TA98, Metabolic Activation: RAT, LIVER, S-9, AROCLOR, Method: PREINCUBATION) “inactive; negative”; under setting [2], “inactive; negative”; (Test System: AMES SALMONELLA TYPHIMURIUM, Strain/Indicator: TA100, Metabolic Activation: RAT, LIVER, S-9, AROCLOR, Method: PREINCUBATION) “inactive; negative”; (Test System: AMES SALMONELLA TYPHIMURIUM, Strain/Indicator: TA102, Metabolic Activation: NONE, Method: PREINCUBATION) “inactive; negative”; (Test System: AMES SALMONELLA TYPHIMURIUM, Strain/Indicator: TA102, Metabolic Activation: RAT, LIVER, S-9, AROCLOR, Method: PREINCUBATION) “inactive; negative”.

`Cc1cc(N)c(S(=O)(=O)O)cc1Cl`: the mutagenic call by setting is: under setting [1], “inactive; negative”; (Test System: AMES SALMONELLA TYPHIMURIUM, Strain/Indicator: TA98, Metabolic Activation: RAT, LIVER, S-9, KC 500, Method: PREINCUBATION) “inactive; negative”; under setting [2], “inactive; negative”; (Test System: AMES SALMONELLA TYPHIMURIUM, Strain/Indicator: TA100, Metabolic Activation: RAT, LIVER, S-9, KC 500, Method: PREINCUBATION) “inactive; negative”; under setting [3], “inactive; negative”; (Test System: AMES SALMONELLA TYPHIMURIUM, Strain/Indicator: TA1535, Metabolic Activation: RAT, LIVER, S-9, KC 500, Method: PREINCUBATION) “inactive; negative”. Moreover, the mutagenic call reads like this: (Test System: AMES SALMONELLA TYPHIMURIUM, Strain/Indicator: TA1537, Metabolic Activation: NONE, Method: PREINCUBATION) “inactive; negative”; (Test System: AMES SALMONELLA TYPHIMURIUM, Strain/Indicator: TA1537, Metabolic Activation: RAT, LIVER, S-9, KC 500, Method: PREINCUBATION) “inactive; negative”; (Test System: AMES SALMONELLA TYPHIMURIUM, Strain/Indicator: TA1538, Metabolic Activation: NONE, Method: PREINCUBATION) “inactive; negative”; (Test System: AMES SALMONELLA TYPHIMURIUM, Strain/Indicator: TA1538, Metabolic Activation: RAT, LIVER, S-9, KC 500, Method: PREINCUBATION) “inactive; negative”; (Test System: E. COLI, Strain/Indicator: WP2 UVRA, Metabolic Activation: NONE, Method: PREINCUBATION) “inactive; negative”; (Test System: E. COLI, Strain/Indicator: WP2 UVRA, Metabolic Activation: RAT, LIVER, S-9, KC 500, Method: PREINCUBATION) “inactive; negative”.

With `O=[N+]([O-])c1cccc(CO)c1`, the mutagenic call by setting is: under setting [1], “inactive; negative”; under setting [2], “inactive; negative”; (Test System: AMES SALMONELLA TYPHIMURIUM, Strain/Indicator: TA100, Metabolic Activation: RAT, LIVER, S-9, AROCLOR 1254, Method: PREINCUBATION) “inactive; negative”.

For the compound `NC(=O)c1ccccc1`, the mutagenic call runs as follows: (Test System: AMES SALMONELLA TYPHIMURIUM, Strain/Indicator: TA97, Metabolic Activation: HAMSTER, LIVER, S-9, AROCLOR 1254 (10 OR 30%), Method: PREINCUBATION) “inactive; negative”; (Test System: AMES SALMONELLA TYPHIMURIUM, Strain/Indicator: TA97, Metabolic Activation: NONE, Method: PREINCUBATION) “inactive; negative”; (Test System: AMES SALMONELLA TYPHIMURIUM, Strain/Indicator: TA97, Metabolic Activation: RAT, LIVER, S-9, AROCLOR 1254 (10 OR 30%), Method: PREINCUBATION) “inactive; negative”; (Test System: AMES SALMONELLA TYPHIMURIUM, Strain/Indicator: TA98, Metabolic Activation: HAMSTER, LIVER, S-9, AROCLOR 1254 (10 OR 30%), Method: PREINCUBATION) “inactive; negative”; under setting [1], “inactive; negative”; (Test System: AMES SALMONELLA TYPHIMURIUM, Strain/Indicator: TA98, Metabolic Activation: RAT, LIVER, S-9, AROCLOR 1254 (10 OR 30%), Method: PREINCUBATION) “inactive; negative”. For the same compound, the mutagenic call is “inactive; negative” (Test System: AMES SALMONELLA TYPHIMURIUM, Strain/Indicator: TA100, Metabolic Activation: HAMSTER, LIVER, S-9, AROCLOR 1254 (10 OR 30%), Method: PREINCUBATION); “inactive; negative” under setting [2]; “inactive; negative” (Test System: AMES SALMONELLA TYPHIMURIUM, Strain/Indicator: TA100, Metabolic Activation: RAT, LIVER, S-9, AROCLOR 1254 (10 OR 30%), Method: PREINCUBATION); “inactive; negative” (Test System: AMES SALMONELLA TYPHIMURIUM, Strain/Indicator: TA1535, Metabolic Activation: HAMSTER, LIVER, S-9, AROCLOR 1254 (10 OR 30%), Method: PREINCUBATION); “inactive; negative” under setting [3]; “inactive; negative” (Test System: AMES SALMONELLA TYPHIMURIUM, Strain/Indicator: TA1535, Metabolic Activation: RAT, LIVER, S-9, AROCLOR 1254 (10 OR 30%), Method: PREINCUBATION).
